{"source": "patent US20150105252A1", "about": "“SUBSTITUTED PYRAZOLES AS HERBICIDES” (E I DU PONT DE NEMOURS AND COMPANY, priority 2013, published 2015)", "key": {"[1]": {"test_system": "bluegrass", "experiment": "Test D preemergence", "format": "in vivo, Poa annua", "conditions": "Preemergence, scale 0 to 100", "summary_of_the_method": "(§1)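 Preemergence: seeds sown in silt loam soil and sprayed with test chemical in non-phytotoxic solvent mixture with surfactant. Postemergence: plants grown in peat/vermiculite medium, sprayed at 2–18 cm (1- to 4-leaf stage). Visual rating versus untreated controls after 14–21 days, 0 (no effect) to 100 (complete control).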"}, "[2]": {"test_system": "chickweed", "experiment": "Test D preemergence", "format": "in vivo, Stellaria media", "conditions": "Preemergence, scale 0 to 100", "summary_of_the_method": "as §1"}, "[3]": {"test_system": "galium", "experiment": "Test D preemergence", "format": "in vivo, Galium aparine", "conditions": "Preemergence, scale 0 to 100", "summary_of_the_method": "as §1"}, "[4]": {"test_system": "field poppy", "experiment": "Test D preemergence", "format": "in vivo, Papaver rhoeas", "conditions": "Preemergence, scale 0 to 100", "summary_of_the_method": "as §1"}, "[5]": {"test_system": "field violet", "experiment": "Test D preemergence", "format": "in vivo, Viola arvensis", "conditions": "Preemergence, scale 0 to 100", "summary_of_the_method": "as §1"}, "[6]": {"test_system": "kochia", "experiment": "Test D preemergence", "format": "in vivo, Kochia scoparia", "conditions": "Preemergence, scale 0 to 100", "summary_of_the_method": "as §1"}, "[7]": {"test_system": "oilseed rape", "experiment": "Test D preemergence", "format": "in vivo, Brassica napus", "conditions": "Preemergence, scale 0 to 100", "summary_of_the_method": "as §1"}, "[8]": {"test_system": "chamomile", "experiment": "Test D preemergence", "format": "in vivo, Matricaria inodora", "conditions": "Preemergence, scale 0 to 100", "summary_of_the_method": "as §1"}, "[9]": {"test_system": "speedwell", "experiment": "Test D preemergence", "format": "in vivo, Veronica persica", "conditions": "Preemergence, scale 0 to 100", "summary_of_the_method": "as §1"}, "[10]": {"test_system": "wheat, spring", "experiment": "Test D preemergence", "format": "in vivo, Triticum aestivum", "conditions": "Preemergence, scale 0 to 100", "summary_of_the_method": "as §1"}, "[11]": {"test_system": "wheat, winter", "experiment": "Test D preemergence", "format": "in vivo, Triticum aestivum", "conditions": "Preemergence, scale 0 to 100", "summary_of_the_method": "as §1"}, "[12]": {"test_system": "windgrass", "experiment": "Test D preemergence", "format": "in vivo, Apera spica-venti", "conditions": "Preemergence, scale 0 to 100", "summary_of_the_method": "as §1"}, "[13]": {"test_system": "blackgrass", "experiment": "Test D postemergence", "format": "in vivo, Alopecurus myosuroides", "conditions": "scale 0 to 100", "summary_of_the_method": "as §1"}, "[14]": {"test_system": "bromegrass, downy", "experiment": "Test D postemergence", "format": "in vivo, Bromus tectorum", "conditions": "scale 0 to 100", "summary_of_the_method": "as §1"}, "[15]": {"test_system": "deadnettle", "experiment": "Test D postemergence", "format": "in vivo, Lamium amplexicaule", "conditions": "scale 0 to 100", "summary_of_the_method": "as §1"}, "[16]": {"test_system": "kochia", "experiment": "Test D postemergence", "format": "in vivo, Kochia scoparia", "conditions": "scale 0 to 100", "summary_of_the_method": "as §1"}, "[17]": {"test_system": "chamomile", "experiment": "Test D postemergence", "format": "in vivo, Matricaria inodora", "conditions": "scale 0 to 100", "summary_of_the_method": "as §1"}, "[18]": {"test_system": "speedwell", "experiment": "Test D postemergence", "format": "in vivo, Veronica persica", "conditions": "scale 0 to 100", "summary_of_the_method": "as §1"}, "[19]": {"test_system": "barley, spring", "experiment": "Test D postemergence", "format": "in vivo, Hordeum vulgare", "conditions": "scale 0 to 100", "summary_of_the_method": "as §1"}, "[20]": {"test_system": "barley, winter", "experiment": "Test D postemergence", "format": "in vivo, Hordeum vulgare", "conditions": "scale 0 to 100", "summary_of_the_method": "as §1"}, "[21]": {"test_system": "buckwheat, wild", "experiment": "Test D postemergence", "format": "in vivo, Polygonum convolvulus", "conditions": "scale 0 to 100", "summary_of_the_method": "as §1"}}}
{"smiles": "CCCc1cc(C(=O)NC(C)C)nn1Cc1cc(C(F)(F)F)nn1C", "note": "[Compound 201]", "values": [{"measurement": "Plant response rating, Bluegrass", "setting": "[1]; 31 g ai/ha", "value": 20}, {"measurement": "Plant response rating, Bluegrass", "setting": "[1]; 62 g ai/ha", "value": 50}, {"measurement": "Plant response rating, Bluegrass", "setting": "[1]; 125 g ai/ha", "value": 80}, {"measurement": "Plant response rating, Bluegrass", "setting": "[1]; 250 g ai/ha", "value": 95}, {"measurement": "Plant response rating, Chickweed", "setting": "[2]; 31 g ai/ha", "value": 80}, {"measurement": "Plant response rating, Chickweed", "setting": "[2]; 62 g ai/ha", "value": 100}, {"measurement": "Plant response rating, Chickweed", "setting": "[2]; 125 g ai/ha", "value": 100}, {"measurement": "Plant response rating, Chickweed", "setting": "[2]; 250 g ai/ha", "value": 100}, {"measurement": "Plant response rating, Galium", "setting": "[3]; 62 g ai/ha", "value": 50}, {"measurement": "Plant response rating, Galium", "setting": "[3]; 125 g ai/ha", "value": 100}, {"measurement": "Plant response rating, Galium", "setting": "[3]; 250 g ai/ha", "value": 100}, {"measurement": "Plant response rating, Field Poppy", "setting": "[4]; 62 g ai/ha", "value": 100}, {"measurement": "Plant response rating, Field Poppy", "setting": "[4]; 125 g ai/ha", "value": 100}, {"measurement": "Plant response rating, Field Poppy", "setting": "[4]; 250 g ai/ha", "value": 100}, {"measurement": "Plant response rating, Field Violet", "setting": "[5]; 62 g ai/ha", "value": 100}, {"measurement": "Plant response rating, Field Violet", "setting": "[5]; 125 g ai/ha", "value": 100}, {"measurement": "Plant response rating, Field Violet", "setting": "[5]; 250 g ai/ha", "value": 100}, {"measurement": "Plant response rating, Kochia", "setting": "[6]; 62 g ai/ha", "value": 100}, {"measurement": "Plant response rating, Kochia", "setting": "[6]; 125 g ai/ha", "value": 100}, {"measurement": "Plant response rating, Kochia", "setting": "[6]; 250 g ai/ha", "value": 100}, {"measurement": "Plant response rating, Oilseed Rape", "setting": "[7]; 62 g ai/ha", "value": 100}, {"measurement": "Plant response rating, Oilseed Rape", "setting": "[7]; 125 g ai/ha", "value": 100}, {"measurement": "Plant response rating, Oilseed Rape", "setting": "[7]; 250 g ai/ha", "value": 100}, {"measurement": "Plant response rating, Chamomile", "setting": "[8]; 31 g ai/ha", "value": 50}, {"measurement": "Plant response rating, Chamomile", "setting": "[8]; 62 g ai/ha", "value": 100}, {"measurement": "Plant response rating, Chamomile", "setting": "[8]; 125 g ai/ha", "value": 100}, {"measurement": "Plant response rating, Chamomile", "setting": "[8]; 250 g ai/ha", "value": 100}, {"measurement": "Plant response rating, Speedwell", "setting": "[9]; 62 g ai/ha", "value": 100}, {"measurement": "Plant response rating, Speedwell", "setting": "[9]; 125 g ai/ha", "value": 100}, {"measurement": "Plant response rating, Speedwell", "setting": "[9]; 250 g ai/ha", "value": 100}, {"measurement": "Plant response rating, Wheat, Spring", "setting": "[10]; 62 g ai/ha", "value": 55}, {"measurement": "Plant response rating, Wheat, Spring", "setting": "[10]; 125 g ai/ha", "value": 75}, {"measurement": "Plant response rating, Wheat, Spring", "setting": "[10]; 250 g ai/ha", "value": 100}, {"measurement": "Plant response rating, Wheat, Winter", "setting": "[11]; 62 g ai/ha", "value": 40}, {"measurement": "Plant response rating, Wheat, Winter", "setting": "[11]; 125 g ai/ha", "value": 70}, {"measurement": "Plant response rating, Wheat, Winter", "setting": "[11]; 250 g ai/ha", "value": 95}, {"measurement": "Plant response rating, Windgrass", "setting": "[12]; 62 g ai/ha", "value": 100}, {"measurement": "Plant response rating, Windgrass", "setting": "[12]; 125 g ai/ha", "value": 100}, {"measurement": "Plant response rating, Windgrass", "setting": "[12]; 250 g ai/ha", "value": 100}, {"measurement": "Blackgrass plant response rating", "setting": "[13]; Postemergence, 31 g ai/ha", "value": 25}, {"measurement": "Blackgrass plant response rating", "setting": "[13]; Postemergence, 125 g ai/ha", "value": 50}, {"measurement": "Blackgrass plant response rating", "setting": "[13]; Postemergence, 250 g ai/ha", "value": 65}, {"measurement": "Blackgrass plant response rating", "setting": "[13]; postemergence, 62 g ai/ha", "value": 25}, {"measurement": "Bromegrass, Downy plant response rating", "setting": "[14]; Postemergence, 31 g ai/ha", "value": 30}, {"measurement": "Bromegrass, Downy plant response rating", "setting": "[14]; Postemergence, 125 g ai/ha", "value": 35}, {"measurement": "Bromegrass, Downy plant response rating", "setting": "[14]; Postemergence, 250 g ai/ha", "value": 50}, {"measurement": "Bromegrass, Downy plant response rating", "setting": "[14]; postemergence, 62 g ai/ha", "value": 30}, {"measurement": "Deadnettle plant response rating", "setting": "[15]; Postemergence, 31 g ai/ha", "value": 55}, {"measurement": "Deadnettle plant response rating", "setting": "[15]; Postemergence, 125 g ai/ha", "value": 60}, {"measurement": "Deadnettle plant response rating", "setting": "[15]; Postemergence, 250 g ai/ha", "value": 65}, {"measurement": "Deadnettle plant response rating", "setting": "[15]; postemergence, 62 g ai/ha", "value": 55}, {"measurement": "Kochia plant response rating", "setting": "[16]; Postemergence, 31 g ai/ha", "value": 75}, {"measurement": "Kochia plant response rating", "setting": "[16]; Postemergence, 125 g ai/ha", "value": 85}, {"measurement": "Kochia plant response rating", "setting": "[16]; Postemergence, 250 g ai/ha", "value": 85}, {"measurement": "Kochia plant response rating", "setting": "[16]; postemergence, 62 g ai/ha", "value": 75}, {"measurement": "Chamomile plant response rating", "setting": "[17]; Postemergence, 31 g ai/ha", "value": 35}, {"measurement": "Chamomile plant response rating", "setting": "[17]; Postemergence, 125 g ai/ha", "value": 55}, {"measurement": "Chamomile plant response rating", "setting": "[17]; Postemergence, 250 g ai/ha", "value": 65}, {"measurement": "Chamomile plant response rating", "setting": "[17]; postemergence, 62 g ai/ha", "value": 35}, {"measurement": "Speedwell plant response rating", "setting": "[18]; Postemergence, 31 g ai/ha", "value": 70}, {"measurement": "Speedwell plant response rating", "setting": "[18]; Postemergence, 125 g ai/ha", "value": 70}, {"measurement": "Speedwell plant response rating", "setting": "[18]; Postemergence, 250 g ai/ha", "value": 100}, {"measurement": "Speedwell plant response rating", "setting": "[18]; postemergence, 62 g ai/ha", "value": 70}, {"measurement": "Barley, Spring plant response rating", "setting": "[19]; Postemergence, 31 g ai/ha", "value": 25}, {"measurement": "Barley, Spring plant response rating", "setting": "[19]; Postemergence, 125 g ai/ha", "value": 25}, {"measurement": "Barley, Spring plant response rating", "setting": "[19]; Postemergence, 250 g ai/ha", "value": 40}, {"measurement": "Barley, Spring plant response rating", "setting": "[19]; postemergence, 62 g ai/ha", "value": 25}, {"measurement": "Barley, Winter plant response rating", "setting": "[20]; Postemergence, 31 g ai/ha", "value": 20}, {"measurement": "Barley, Winter plant response rating", "setting": "[20]; Postemergence, 125 g ai/ha", "value": 25}, {"measurement": "Barley, Winter plant response rating", "setting": "[20]; Postemergence, 250 g ai/ha", "value": 35}, {"measurement": "Barley, Winter plant response rating", "setting": "[20]; postemergence, 62 g ai/ha", "value": 20}, {"measurement": "Buckwheat, Wild plant response rating", "setting": "[21]; Postemergence, 31 g ai/ha", "value": 50}, {"measurement": "Buckwheat, Wild plant response rating", "setting": "[21]; Postemergence, 125 g ai/ha", "value": 65}, {"measurement": "Buckwheat, Wild plant response rating", "setting": "[21]; Postemergence, 250 g ai/ha", "value": 70}, {"measurement": "Buckwheat, Wild plant response rating", "setting": "[21]; postemergence, 62 g ai/ha", "value": 50}]}
